This note sets out measurements from patent US12350382B2, “Method for preparing particles comprising metal oxide coating and particles with metal oxide coating” (priority 2007, dated 2025).

The structures appear in SMILES notation.

This data set is described as follows: Analytical evaluation of the BPO release out of the silica shell (time for yellow color appearance, KI/sodium thiosulfate). The data set is classed as physicochemical. Particulars: free (uncoated) BPO, 0 coatings, no aging. Here is the method: The release profile of BPO out of the silica shell was done in a water/Acetonitrile solution, which is capable of dissolving BPO. The method is based on the strong oxidation properties of BPO. BPO reacts with potassium iodine (KI) ions to form I2, which gives a color reaction. I2 is than reduces back to I^− using sodium thiosulfate (STS) to eliminate the color. Each 12.11 mg of oxidizing BPO was reduced by 1 ml of 0.1M STS.
Solution A is composed of deionized water, acetone, 0.1M STS solution and KI.
The following table includes the ratios between the components in order to distinguish a certain % of released BPO.
Suspension B, preparation of BPO: weigh 200 mg of BPO as 100% (1 g as 20% suspension) into 5 ml measuring bottle and fill with deionized water up to 5 ml.
Procedure: Into 50 ml glass beaker add 40 ml of solution A and the 5 ml of suspension B and measure the time for yellow color appearance.

Turning to `O=C(OOC(=O)c1ccccc1)c1ccccc1` [Free BPO, benzoyl peroxide], the “time for 30 % of BPO released” value amounted to 0.5 min and the “time for 90 % of BPO released” value was determined as 1 min.
